Read-outs that look alike come from different tables or passages of the source.
Molecular target: T1, PD-1/PD-L1 interaction (PD-1-Ig / PD-L1-His) (Homo sapiens, UniProt Q9NZQ7)
T1 construct: hPDL1(18-239)-TVMV-His; TVMV protease site linker (C); made in house; host or cells: HEK293T
Experiment: PD-1/PD-L1 Homogenous Time-Resolved Fluorescence (HTRF) binding assay
Details: PD-L1-His 10 nM, PD-1-Ig 20 nM, read-out: Range or IC50
From the text: The ability of the compounds of formula (I) to bind to PD-L1 was investigated using a PD-1/PD-L1 Homogenous Time-Resolved Fluorescence (HTRF) binding assay.
Homogenous Time-Resolved Fluorescence (HTRF) Binding Assay.
The interaction of PD-1 and PD-L1 can be assessed using soluble, purified preparations of the extracellular domains of the two proteins. The PD-1 and PD-L1 protein extracellular domains were expressed as fusion proteins with detection tags, for PD-1, the tag was the Fc portion of Immunoglobulin (PD-1-Ig) and for PD-L1 it was the 6 histidine motif (PD-L1-His). All binding studies were performed in an HTRF assay buffer consisting of dPBS supplemented with 0.1% […] bovine serum albumin and 0.05% (v/v) Tween-20. For the h/PD-L1-His binding assay, inhibitors were pre-incubated with PD-L1-His (10 nM final) for 15 m in 4 μl of assay buffer, followed by addition of PD-1-Ig (20 nM final) in 1 μl of assay buffer and further incubation for 15 m. HTRF detection was achieved using europium crypate-labeled anti-Ig (1 nM final) and allophycocyanin (APC) labeled anti-His (20 nM final). Antibodies were diluted in HTRF detection buffer and 5 μl was dispensed on top of the binding reaction. […] Additional binding assays were established between the human proteins PD-1-Ig/PD-L2-His (20 & 5 nM, respectively) and CD80-His/PD-L1-Ig (100 & 10 nM, respectively). […]

T1 sequence (Q9NZQ7 with tags, fused parts or gaps): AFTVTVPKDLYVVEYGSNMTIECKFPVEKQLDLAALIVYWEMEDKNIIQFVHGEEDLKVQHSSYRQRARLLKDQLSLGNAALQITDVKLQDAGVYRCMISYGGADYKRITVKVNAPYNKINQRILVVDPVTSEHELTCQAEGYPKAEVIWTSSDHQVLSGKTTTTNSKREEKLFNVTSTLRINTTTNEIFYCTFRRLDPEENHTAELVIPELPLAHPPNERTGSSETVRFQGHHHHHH

IC50 (IC50 range class) [nM] | IC50 (numeric IC50) [nM] | Compound
20.1 to 90 |  | Cc1c(OCCCN2CCCC(CO)C2)cccc1-c1cccc(OCCCN2CC[C@@H](O)C2)c1C (mixture of isomers) [Example 2003, (3R)-1-(3-((3′-(3-(3-(hydroxymethyl)piperidin-1-yl)propoxy)-2,2′-dimethyl-[1,1′-biphenyl]-3-yl)oxy)propyl)pyrrolidin-3-ol]
20.1 to 90 |  | CCN(CC)C(=O)C1CCCN(CCCOc2cccc(-c3cccc(OCCCN4CC[C@@H](O)C4)c3C)c2C)C1 (mixture of isomers) [Example 2023, N,N-diethyl-1-(3-((3′-(3-((R)-3-hydroxypyrrolidin-1-yl)propoxy)-2,2′-dimethyl-[1,1′-biphenyl]-3-yl)oxy)propyl)piperidine-3-carboxamide]
20.1 to 90 |  | Cc1c(OCCCN2CC[C@@H](O)C2)cccc1-c1cccc(OCCCN2CCCCC2CO)c1C (mixture of isomers) [Example 2025, (3R)-1-(3-((3′-(3-(2-(hydroxymethyl)piperidin-1-yl)propoxy)-2,2′-dimethyl-[1,1′-biphenyl]-3-yl)oxy)propyl)pyrrolidin-3-ol]
0.04 to 20 |  | Cc1c(OCCCN2CCCC(CO)C2)cccc1-c1cccc(OCCCN2CCCC(CO)C2)c1C (mixture of isomers) [Example 2026, ((((2,2′-dimethyl-[1,1′-biphenyl]-3,3′-diyl)bis(oxy))bis(propane-3,1-diyl))bis(piperidine-1,3-diyl))dimethanol]
1000 to 10000 |  | Cc1c(OCCCN2CC[C@@H](O)C2)cccc1-c1cccc(OCCCN2CC(O)C[C@H]2C(=O)O)c1C (stereo in doubt) [Example 2051, (2S,4R)-4-hydroxy-1-(3-((3′-(3-((R)-3-hydroxypyrrolidin-1-yl)propoxy)-2,2′-dimethyl-[1,1′-biphenyl]-3-yl)oxy)propyl)pyrrolidine-2-carboxylic acid]
1000 to 10000 |  | Cc1ccc(OCCCN2CC[C@@H](O)C2)cc1-c1cccc(OCCCN2CC[C@@H](O)C2)c1C [Example 1004, (3R,3′R)-1,1′-(((2,6′-dimethyl-[1,1′-biphenyl]-3,3′-diyl)bis(oxy))bis(propane-3,1-diyl))bis(pyrrolidin-3-ol)]
20.1 to 90 |  | CC(=O)N1CCN(CCCOc2cccc(-c3cccc(OCCCN4CC[C@@H](O)C4)c3C)c2C)CC1 [Example 2001, (R)-1-(4-(3-((3′-(3-(3-hydroxypyrrolidin-1-yl)propoxy)-2,2′-dimethyl-[1,1′-biphenyl]-3-yl)oxy)propyl)piperazin-1-yl)ethan-1-one]
 | 99 | Cc1c(OCCCN2CC(N(C)C)C2)cccc1-c1cccc(OCCCN2CC[C@@H](O)C2)c1C [Example 2002, (R)-1-(3-((3′-(3-(3-(dimethylamino)azetidin-1-yl)propoxy)-2,2′-dimethyl-[1,1′-biphenyl]-3-yl)oxy)propyl)pyrrolidin-3-ol]
20.1 to 90 |  | Cc1c(OCCCNCCN2CCOCC2)cccc1-c1cccc(OCCCN2CC[C@@H](O)C2)c1C [Example 2005, (R)-1-(3-((2,2′-dimethyl-3′-(3-((2-morpholinoethyl)amino)propoxy)-[1,1′-biphenyl]-3-yl)oxy)propyl)pyrrolidin-3-ol]

Continued, compound first:

Compound | IC50 (IC50 range class) [nM] | IC50 (numeric IC50) [nM]
Cc1c(OCCCN(C)CC(O)CO)cccc1-c1cccc(OCCCN2CC[C@@H](O)C2)c1C (mixture of isomers) [Example 2015, 3-((3-((3′-(3-((R)-3-hydroxypyrrolidin-1-yl)propoxy)-2,2′-dimethyl-[1,1′-biphenyl]-3-yl)oxy)propyl)(methyl)amino)propane-1,2-diol] | 20.1 to 90 | 
Cc1c(OCCCNCC(O)C(C)(C)O)cccc1-c1cccc(OCCCNCC(O)C(C)(C)O)c1C (mixture of isomers) [Example 2029, 4,4′-((((2,2′-dimethyl-[1,1′-biphenyl]-3,3′-diyl)bis(oxy))bis(propane-3,1-diyl))bis(azanediyl))bis(2-methylbutane-2,3-diol)] | 0.04 to 20 | 
Cc1c(OCCCNCC(O)c2cccnc2)cccc1-c1cccc(OCCCN2CC[C@@H](O)C2)c1C (mixture of isomers) [Example 2040, (3R)-1-(3-((3′-(3-((2-hydroxy-2-(pyridin-3-yl)ethyl)amino)propoxy)-2,2′-dimethyl-[1,1′-biphenyl]-3-yl)oxy)propyl)pyrrolidin-3-ol] | 20.1 to 90 | 
Cc1c(OCCCNCC(O)CO)cccc1-c1cccc(OCCCN2CC[C@@H](O)C2)c1C (mixture of isomers) [Example 2059, 3-((3-((3′-(3-((R)-3-hydroxypyrrolidin-1-yl)propoxy)-2,2′-dimethyl-[1,1′-biphenyl]-3-yl)oxy)propyl)amino)propane-1,2-diol] | 0.04 to 20 | 
Cc1c(OCCCN(C)CC(O)CO)cccc1-c1cccc(OCCCN(C)CC(O)CO)c1C (mixture of isomers) [Example 2078, 3,3′-((((2,2′-dimethyl-[1,1′-biphenyl]-3,3′-diyl)bis(oxy))bis(propane-3,1-diyl))bis(methylazanediyl))bis(propane-1,2-diol)] | 0.04 to 20 | 
Cc1c(OCCCNCC(O)CO)cccc1-c1cccc(OCCCNCC(O)CO)c1C (mixture of isomers) [Example 2083, 3,3′-((((2,2′-dimethyl-[1,1′-biphenyl]-3,3′-diyl)bis(oxy))bis(propane-3,1-diyl))bis(azanediyl))bis(propane-1,2-diol)] | 0.04 to 20 | 
Cc1c(OCCCNCC(C)(O)CO)cccc1-c1cccc(OCCCNCC(C)(O)CO)c1C (mixture of isomers) [Example 2104, 3,3′-((((2,2′-dimethyl-[1,1′-biphenyl]-3,3′-diyl)bis(oxy))bis(propane-3,1-diyl))bis(azanediyl))bis(2-methylpropane-1,2-diol)] | 0.04 to 20 | 
Cc1c(OCCCN2CC[C@@H](O)C2)cccc1-c1ccc2c(c1)OC(CCN1CC[C@@H](O)C1)CO2 (single isomer, unassigned) [Example 3030] | 0.04 to 20 | 
Cc1c(OCCCN2CC[C@@H](O)C2)cccc1-c1ccc2c(c1)OC(CCN1CC[C@@H](O)C1)CO2 (single isomer, unassigned) [Example 3031] | 0.04 to 20 | 
Cc1c(OCCCN2CCC(O)(CC(=O)O)C2)cccc1-c1cccc(OCCCN2CCC(O)(CC(=O)O)C2)c1Cl (stereo not shown) [Example 1001, 2,2′-((((2-chloro-2′-methyl-[1,1′-biphenyl]-3,3′-diyl)bis(oxy))bis(propane-3,1-diyl))bis(3-hydroxypyrrolidine-1,3-diyl))diacetic acid] | 20.1 to 90 | 
Cc1c(OCCCN2CCC(O)(C(=O)O)CC2)cccc1-c1cccc(OCCCN2CCC(O)(C(=O)O)CC2)c1Cl [Example 1002, 1,1′-(((2-chloro-2′-methyl-[1,1′-biphenyl]-3,3′-diyl)bis(oxy))bis(propane-3,1-diyl))bis(4-hydroxypiperidine-4-carboxylic acid)] | 0.04 to 20 | 
Cc1c(OCCCN2C[C@H](O)C[C@H]2C(=O)O)cccc1-c1cccc(OCCCN2C[C@H](O)C[C@H]2C(=O)O)c1Cl [Example 1003, (2S,2′S,4R,4′R)-1,1′-(((2-chloro-2′-methyl-[1,1′-biphenyl]-3,3′-diyl)bis(oxy))bis(propane-3,1-diyl))bis(4-hydroxypyrrolidine-2-carboxylic acid)] | > 10000 | 
COc1cc2c(cc1OC)CN(CCCOc1cccc(-c3cccc(OCCCN4CC[C@@H](O)C4)c3C)c1C)CC2 [Example 2004, (R)-1-(3-((3′-(3-(6,7-dimethoxy-3,4-dihydroisoquinolin-2(1H)-yl)propoxy)-2,2′-dimethyl-[1,1′-biphenyl]-3-yl)oxy)propyl)pyrrolidin-3-ol] | 20.1 to 90 | 
